Literature values in patent US20220304980A1, “METERED DOSING COMPOSITIONS AND METHODS OF USE OF P[…]” (SW Holdings, Inc, priority 2019, published 2022).

Assays:
5-HT2A receptor = 5-HT2A receptor (Homo sapiens, UniProt P28223); details: selective 5-HT2A antagonists; cited from earlier work
rat veins = details: cited from earlier work

Sequence of 5-HT2A receptor (P28223 whole entry): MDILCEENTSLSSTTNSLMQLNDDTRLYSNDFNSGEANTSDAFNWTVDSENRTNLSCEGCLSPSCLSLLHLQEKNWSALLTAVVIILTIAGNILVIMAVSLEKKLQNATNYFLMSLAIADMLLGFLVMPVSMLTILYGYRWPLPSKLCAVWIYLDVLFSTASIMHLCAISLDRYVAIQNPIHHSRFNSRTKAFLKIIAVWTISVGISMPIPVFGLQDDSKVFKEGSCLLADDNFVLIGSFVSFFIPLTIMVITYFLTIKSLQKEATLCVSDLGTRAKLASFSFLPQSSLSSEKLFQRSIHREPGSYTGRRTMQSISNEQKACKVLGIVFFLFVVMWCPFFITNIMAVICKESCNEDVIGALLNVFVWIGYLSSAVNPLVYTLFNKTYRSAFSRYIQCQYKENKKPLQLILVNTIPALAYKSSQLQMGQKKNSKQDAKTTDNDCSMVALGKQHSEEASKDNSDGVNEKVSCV

SMILES	vascular effect (5-HT2A receptor)	effect on rat veins (rat veins; 5-HT2A agonist)	effect on DOI-induced constriction of rat veins (rat veins; 5-HT2A antagonist)
COc1cccc(CCc2ccccc2OCC(CN(C)C)OC(=O)CCC(=O)O)c1 (centres unmarked) [sarpogrelate]	vasodilating properties	–	–
COc1cc(CC(C)N)c(OC)cc1I (centres unmarked) [DOI]	–	constricts rat veins	–
O=CN1CCC(C(=O)NCCN2CCC(=C3c4ccccc4C=Cc4ccccc43)CC2)CC1 [AT-1015]	vasodilating properties	–	–
O=C(c1ccc(F)cc1)C1CCN(CCn2c(=O)[nH]c3ccccc3c2=O)CC1 [ketanserin]	vasodilating properties	–	blocked
